Source: US7214715B2, “Compounds to treat Alzheimer's disease” (Pharmacia & Upjohn, priority 2000, dated 2007)

## CCCN(CCC)C(=O)c1cc(C(=O)N[C@@H](Cc2ccccc2)[C@H](O)CNCc2cccc(OC)c2)cc(-c2ccc(OC)cc2)c1.Cl
  melting point: 205 to 209 °C

## CCCN(CCC)C(=O)c1cc(C(=O)N[C@@H](Cc2ccccc2)[C@H](O)CNCc2cccc(OC)c2)cc(-c2ccsc2)c1.Cl
  melting point: 199 to 201 °C

## CCCN(CCC)C(=O)c1cc(C(=O)N[C@@H](Cc2ccccc2)[C@H](O)CNCc2cccc(OC)c2)cc(-c2ccccc2)c1.Cl
  melting point: 214 to 219 °C

## CCCN(CCC)C(=O)c1cc(C(=O)N[C@@H](Cc2cc(F)cc(F)c2)[C@H](O)CNCc2cccc(OC)c2)cc(-c2ccccc2)c1.Cl
  melting point: 230 to 233 °C
